2 compounds from paper PMC5928494 (ACS Omega, 2018) can be followed below.

Where two headings read alike, the source gives them in different places.

Data set [1] has as its system WI-38 (human lung fibroblast, normal) cell line.
The test system of data set [2] is ID-8 (murine ovarian cancer) cell line.
The subject of data set [3] is MX-1 (human breast cancer) cell line.
For data set [4] the test system is unchanged. Kind of data set: cells. The conditions noted are these: 72 h, read-out: Cytotoxicity IC50, MX-1.
For data set [5], the system named is ID-8 (murine ovarian cancer) cell line. Nature of the data set: cells. The conditions noted are these: Mus musculus, 72 h, read-out: Cytotoxicity IC50, ID-8.
A short description of data set [6]: in vitro. Conditions: human.

As for “SB-T-1214 [compound 4, reference compound]”, the values for the IC50 in data set [1], in data set [2] and in data set [3] were 4.14 ± 0.82 nM, 1.89 ± 0.3 nM and 2.9 ± 0.47 nM, respectively.

In the case of `CC(=O)O[C@H]1C(=O)[C@@]2(C)[C@H]([C@H](OC(=O)c3ccccc3)[C@]3(O)C[C@H](OC(=O)[C@H](O)[C@@H](NC(=O)c4ccccc4)c4ccccc4)C(C)=C1C3(C)C)[C@]1(OC(C)=O)CO[C@@H]1C[C@@H]2O` [paclitaxel], the IC50 in data set [4] stood at 3.83 ± 0.59 nM; in data set [5] it was 21.2 ± 4.3 nM; in data set [6], 175 ± 51.6 nM.
